For 23 molecules, EC50 results are on record in US9957254B2, “Cyclohexen-1-yl-pyridin-2-yl-1h-pyrazole-4-carboxylic acid derivatives and the use thereof as soluble guanylate cyclase activators” (Novartis AG, priority 2014, dated 2018).

Each structure is given as a SMILES string.

The target of the test is T1, soluble guanylate cyclase (Homo sapiens, UniProt Q02153).
T1 construct: expressed in transfected cells
Kind of test: CHO cellular assay (cGMP production, Cisbio cGMP HTRF). Format: cell-based. Particulars: CHO K1 cells overexpressing human GUCYA3/GUCYB3 (clone 8E10), 1 mM IBMX, 20 uM ODQ, 1 h room temperature, listed 0.5 nM means actual EC50 ≤0.5 nM (quantification limit). The text has this: Chinese hamster ovary (CHO) cells overexpressing soluble guanylate cyclase were generated to test the effect of sGC activators in a cellular context. Human cDNAs for GUCYA3 (RefSeq: NM_000856.3) and GUCYB3 (RefSeq: NM_000857.1) were amplified by PCR from a HUVEC (Human Umbilical Vein Endothelial Cells) cDNA library and cloned into mammalian expression vectors. CHO K1 cells (ATCC CCL-61) were transfected using Lipofectamine 2000 following manufacturer's instructions and stably expressing clones were identified by antibiotic selection. CHO GUCY clone 8E10 was used for subsequent experiments.
Cells were seeded at a density of 3000 cells/well in white 384-well proxyplates (Perkin Elmer) and incubated overnight, then the medium was removed and cells were washed with assay buffer (HBSS, 0.1% BSA, 1 mM IBMX, 20 uM ODQ). sGC activators were serially diluted in DMSO, then diluted in assay buffer prior to adding to cells (10 ul/well, final DMSO concentration 0.5%). Cells were incubated with compounds for 1 h room temperature, then assayed for cGMP production using Cisbio cGMP HTRF kit (62GM2PEC) according to manufacturer's instructions.
The EC50s are calculated based on the amount of cGMP interpolated from the standard curve, using a 4-parameter sigmoidal dose-response.
Compounds of invention are active on sGC activation. Data on Table 1 collected using the assay of Biological Example 1. The minimum EC50 quantification limit of the assay is 0.5 nM, therefore any compound listed as having an EC50 value of 0.5 nM has a actual EC50 of ≤0.5 nM.
For orientation: TR-FRET usually uses a lanthanide donor and a delayed reading to cut background.

T1 sequence (Q02108 whole entry partner): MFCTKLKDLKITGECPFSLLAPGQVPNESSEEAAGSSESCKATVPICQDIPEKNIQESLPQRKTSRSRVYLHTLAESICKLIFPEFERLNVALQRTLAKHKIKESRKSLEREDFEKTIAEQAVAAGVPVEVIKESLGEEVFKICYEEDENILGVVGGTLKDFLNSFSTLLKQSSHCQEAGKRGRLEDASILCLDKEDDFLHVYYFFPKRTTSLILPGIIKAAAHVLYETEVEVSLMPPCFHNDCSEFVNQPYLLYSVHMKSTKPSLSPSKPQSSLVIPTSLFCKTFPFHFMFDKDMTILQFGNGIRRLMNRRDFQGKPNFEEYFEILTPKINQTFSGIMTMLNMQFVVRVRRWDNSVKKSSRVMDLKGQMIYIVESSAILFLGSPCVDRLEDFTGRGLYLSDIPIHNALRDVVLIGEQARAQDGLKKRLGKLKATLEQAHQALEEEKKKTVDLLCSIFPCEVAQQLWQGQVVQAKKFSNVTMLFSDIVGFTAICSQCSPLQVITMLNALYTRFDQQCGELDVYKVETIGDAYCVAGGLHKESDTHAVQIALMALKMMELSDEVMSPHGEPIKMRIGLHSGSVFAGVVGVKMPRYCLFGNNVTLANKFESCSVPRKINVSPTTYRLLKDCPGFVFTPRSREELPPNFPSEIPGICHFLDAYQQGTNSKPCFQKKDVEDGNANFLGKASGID
T1 sequence (Q02153 whole entry): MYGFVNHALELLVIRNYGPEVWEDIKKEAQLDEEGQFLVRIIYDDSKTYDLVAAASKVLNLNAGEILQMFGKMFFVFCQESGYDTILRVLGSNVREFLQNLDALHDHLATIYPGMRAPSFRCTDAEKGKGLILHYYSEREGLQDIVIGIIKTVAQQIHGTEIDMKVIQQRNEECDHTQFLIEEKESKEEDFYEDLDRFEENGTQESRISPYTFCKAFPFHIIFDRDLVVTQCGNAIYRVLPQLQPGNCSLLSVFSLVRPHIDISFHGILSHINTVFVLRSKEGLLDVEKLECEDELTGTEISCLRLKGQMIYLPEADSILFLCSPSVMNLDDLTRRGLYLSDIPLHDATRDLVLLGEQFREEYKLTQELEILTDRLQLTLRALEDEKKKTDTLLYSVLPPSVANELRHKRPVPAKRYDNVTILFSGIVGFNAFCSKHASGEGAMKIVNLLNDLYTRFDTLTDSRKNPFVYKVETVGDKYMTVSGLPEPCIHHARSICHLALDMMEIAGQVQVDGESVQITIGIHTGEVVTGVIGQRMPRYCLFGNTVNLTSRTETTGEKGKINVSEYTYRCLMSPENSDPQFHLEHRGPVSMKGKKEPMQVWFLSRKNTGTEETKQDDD

For `CCc1cc(OCC2=C(c3cccc(-n4ncc(C(=O)O)c4C(F)F)n3)CCCC2C)ccc1C1CCN(C(=O)C2CC2)CC1` (single isomer, unassigned; (-)) [Example 20b (−), (−)-1-(6-(2-((4-(1-(cyclopropanecarbonyl)piperidin-4-yl)-3-ethylphenoxy)methyl)-3-methylcyclohex-1-en-1-yl)pyridin-2-yl)-5-(difluoromethyl)-1H-pyrazole-4-carboxylic acid], the EC50 – broadly, the concentration giving half of the maximal effect – was 2 nM. This counts as single-digit nanomolar.

Molecule `CCc1cc(OCC2=C(c3cccc(-n4ncc(C(=O)O)c4C(F)(F)F)n3)CCC2C)ccc1C1CCN(C(=O)C2CC2)CC1` (single isomer, unassigned; (-)) [Example 22(b) (−), (−)-1-(6-(2-((4-(1-(cyclopropanecarbonyl)piperidin-4-yl)-3-ethylphenoxy)methyl)-3-methylcyclopent-1-en-1-yl)pyridin-2-yl)-5-(trifluoromethyl)-1H-pyrazole-4-carboxylic acid] registered an EC50 of 5.5 nM. The value for `CCc1cc(OCC2=C(c3cccc(-n4ncc(C(=O)O)c4CC)n3)CCCC2C)ccc1C1CCN(C(=O)[C@H](C)O)CC1` (single isomer, unassigned; diastereomer-1) [Example 18a] was ≤ 0.5 nM.

Consider `CCc1cc(OCC2=C(c3cccc(-n4ncc(C(=O)O)c4C)n3)CCCC2C)ccc1C1CCN(C(=O)[C@H](C)O)CC1` (single isomer, unassigned; diastereomer-1) [Example 19a], for which the EC50 was ≤ 0.5 nM. The value for `CCc1cc(OCC2=C(c3cccc(-n4ncc(C(=O)O)c4CC)n3)CCCC2C)ccc1C1CCN(C(=O)[C@H](C)O)CC1` (single isomer, unassigned; diastereomer-2) [Example 18b] was 8.9 nM; that for `CCc1cc(OCC2=C(c3cccc(-n4ncc(C(=O)O)c4C)n3)CCCC2C)ccc1C1CCN(C(=O)[C@H](C)O)CC1` (single isomer, unassigned; diastereomer-2) [Example 19b] was 8 nM; that for `Cc1cc(C2CCN(C(=O)C3CC3)CC2)ccc1OCC1=C(c2cccc(-n3ncc(C(=O)O)c3C(F)(F)F)n2)CCCC1` [Example 1, 1-(6-(2-((4-(1-(Cyclopropanecarbonyl)piperidin-4-yl)-2-methylphenoxy)methyl)cyclohex-1-en-1-yl)pyridin-2-yl)-5-(trifluoromethyl)-1H-pyrazole-4-carboxylic acid] was ≤ 0.5 nM. `CCC(=O)N1CCC(c2ccc(OCC3=C(c4cccc(-n5ncc(C(=O)O)c5C(F)(F)F)n4)CCCC3)c(C)c2)CC1` [Example 2-1, 1-(6-(2-((2-methyl-4-(1-propionylpiperidin-4-yl)phenoxy)methyl)cyclohex-1-en-1-yl)pyridin-2-yl)-5-(trifluoromethyl)-1H-pyrazole-4-carboxylic acid]: the EC50 is ≤ 0.5 nM.

`COC(=O)N1CCC(c2ccc(OCC3=C(c4cccc(-n5ncc(C(=O)O)c5C(F)(F)F)n4)CCCC3)c(C)c2)CC1` [Example 2-2, 1-(6-(2-((4-(1-(methoxycarbonyl)piperidin-4-yl)-2-methylphenoxy)methyl)cyclohex-1-en-1-yl)pyridin-2-yl)-5-(trifluoromethyl)-1H-pyrazole-4-carboxylic acid] displayed an EC50 of 1 nM. `Cc1cc(C2CCN(S(C)(=O)=O)CC2)ccc1OCC1=C(c2cccc(-n3ncc(C(=O)O)c3C(F)(F)F)n2)CCCC1` [Example 2-3, 1-(6-(2-((2-methyl-4-(1-(methylsulfonyl)piperidin-4-yl)phenoxy)methyl)cyclohex-1-en-1-yl)pyridin-2-yl)-5-(trifluoromethyl)-1H-pyrazole-4-carboxylic acid] came in with an EC50 of 1 nM. Under `Cc1cc(C2CCN(C(=O)N(C)C)CC2)ccc1OCC1=C(c2cccc(-n3ncc(C(=O)O)c3C(F)(F)F)n2)CCCC1` [Example 2-4, 1-(6-(2-((4-(1-(dimethylcarbamoyl)piperidin-4-yl)-2-methylphenoxy)methyl)cyclohex-1-en-1-yl)pyridin-2-yl)-5-(trifluoromethyl)-1H-pyrazole-4-carboxylic acid] stands 1 nM. `Cc1cc(C2CCN(C(=O)CO)CC2)ccc1OCC1=C(c2cccc(-n3ncc(C(=O)O)c3C(F)(F)F)n2)CCCC1` [Example 2-5, 1-(6-(2-((4-(1-(2-hydroxyacetyl)piperidin-4-yl)-2-methylphenoxy)methyl)cyclohex-1-en-1-yl)pyridin-2-yl)-5-(trifluoromethyl)-1H-pyrazole-4-carboxylic acid] had an EC50 of 2.4 nM. Compared with the last molecule, the EC50 is about 2.4-fold higher. As to `O=C(O)c1cnn(-c2cccc(C3=C(COc4ccc(C5CCN(C(=O)C6CC6)CC5)cc4)CCCC3)n2)c1C(F)(F)F` [Example 2-6, 1-(6-(2-((4-(1-(cyclopropanecarbonyl)piperidin-4-yl)phenoxy)methyl)cyclohex-1-en-1-yl)pyridin-2-yl)-5-(trifluoromethyl)-1H-pyrazole-4-carboxylic acid], the EC50 amounted to 6.3 nM. Molecule `CCN(CC)C(=O)N1CCC(c2ccc(OCC3=C(c4cccc(-n5ncc(C(=O)O)c5C(F)(F)F)n4)CCCC3)c(C)c2)CC1` [Example 2-7, 1-(6-(2-((4-(1-(diethylcarbamoyl)piperidin-4-yl)-2-methylphenoxy)methyl)cyclohex-1-en-1-yl)pyridin-2-yl)-5-(trifluoromethyl)-1H-pyrazole-4-carboxylic acid] showed an EC50 of 2 nM. As to `CCS(=O)(=O)N1CCC(c2ccc(OCC3=C(c4cccc(-n5ncc(C(=O)O)c5C(F)(F)F)n4)CCCC3)c(C)c2)CC1` [Example 2-8, 1-(6-(2-((4-(1-(ethylsulfonyl)piperidin-4-yl)-2-methylphenoxy)methyl)cyclohex-1-en-1-yl)pyridin-2-yl)-5-(trifluoromethyl)-1H-pyrazole-4-carboxylic acid], the EC50 was ≤ 0.5 nM.

Molecule `Cc1cc(C2CCN(S(=O)(=O)C3CC3)CC2)ccc1OCC1=C(c2cccc(-n3ncc(C(=O)O)c3C(F)(F)F)n2)CCCC1` [Example 2-9, 1-(6-(2-((4-(1-(cyclopropylsulfonyl)piperidin-4-yl)-2-methylphenoxy)methyl)cyclohex-1-en-1-yl)pyridin-2-yl)-5-(trifluoromethyl)-1H-pyrazole-4-carboxylic acid] gave an EC50 of 1 nM. The value for `Cc1cc(C2CCN(C(=O)C(C)C)CC2)ccc1OCC1=C(c2cccc(-n3ncc(C(=O)O)c3C(F)(F)F)n2)CCCC1` [Example 2-10, 1-(6-(2-((4-(1-isobutyrylpiperidin-4-yl)-2-methylphenoxy)methyl)cyclohex-1-en-1-yl)pyridin-2-yl)-5-(trifluoromethyl)-1H-pyrazole-4-carboxylic acid] was ≤ 0.5 nM; that for `Cc1cc(C2CCN(C(=O)C3CCC3)CC2)ccc1OCC1=C(c2cccc(-n3ncc(C(=O)O)c3C(F)(F)F)n2)CCCC1` [Example 2-11, 1-(6-(2-((4-(1-(cyclobutanecarbonyl)piperidin-4-yl)-2-methylphenoxy)methyl)cyclohex-1-en-1-yl)pyridin-2-yl)-5-(trifluoromethyl)-1H-pyrazole-4-carboxylic acid] was 1 nM; that for `CCNC(=O)N1CCC(c2ccc(OCC3=C(c4cccc(-n5ncc(C(=O)O)c5C(F)(F)F)n4)CCCC3)c(C)c2)CC1` [Example 2-12, 1-(6-(2-((4-(1-(ethylcarbamoyl)piperidin-4-yl)-2-methylphenoxy)methyl)cyclohex-1-en-1-yl)pyridin-2-yl)-5-(trifluoromethyl)-1H-pyrazole-4-carboxylic acid] was 14 nM.

In turn, `Cc1cc(C2CCN(C(=O)OC(C)(C)C)CC2)ccc1OCC1=C(c2cccc(-n3ncc(C(=O)O)c3C(F)(F)F)n2)CCCC1` [Example 2-13, 1-(6-(2-((4-(1-(tert-butoxycarbonyl)piperidin-4-yl)-2-methylphenoxy)methyl)cyclohex-1-en-1-yl)pyridin-2-yl)-5-(trifluoromethyl)-1H-pyrazole-4-carboxylic acid] displayed an EC50 of 110 nM. The value for `Cc1cc(C2CCN(C(=O)[C@H](C)O)CC2)ccc1OCC1=C(c2cccc(-n3ncc(C(=O)O)c3C(F)(F)F)n2)CCCC1` [Example 3, (S)-1-(6-(2-((4-(1-(2-hydroxypropanoyl)piperidin-4-yl)-2-methylphenoxy)methyl)cyclohex-1-en-1-yl)pyridin-2-yl)-5-(trifluoromethyl)-1H-pyrazole-4-carboxylic acid] was ≤ 0.5 nM.

For `Cc1cc(C2CCN(C(=O)[C@@H](C)O)CC2)ccc1OCC1=C(c2cccc(-n3ncc(C(=O)O)c3C(F)(F)F)n2)CCCC1` [Example 4-1, (R)-1-(6-(2-((4-(1-(2-hydroxypropanoyl)piperidin-4-yl)-2-methylphenoxy)methyl)cyclohex-1-en-1-yl)pyridin-2-yl)-5-(trifluoromethyl)-1H-pyrazole-4-carboxylic acid], the EC50 is 164 nM. This counts as sub-micromolar. `Cc1cc(C2CCN(C(=O)c3ccccn3)CC2)ccc1OCC1=C(c2cccc(-n3ncc(C(=O)O)c3C(F)(F)F)n2)CCCC1` [Example 4-2, 1-(6-(2-((2-methyl-4-(1-picolinoylpiperidin-4-yl)phenoxy)methyl)cyclohex-1-en-1-yl)pyridin-2-yl)-5-(trifluoromethyl)-1H-pyrazole-4-carboxylic acid] displayed an EC50 of 8.4 nM.
